# Source: US10933141B2, “Formulations with reduced degradation of polysorbate” (Genentech, Inc., priority 2015, dated 2021)
# Entries after “also recorded” stand apart in the source; their conditions may differ.
# How the values were obtained:
# [1] = Solubilization of existing visible and subvisible particles from enzymatic PS20 degradation (HIAC, Seidenader); type: physicochemical; conditions: for amount of SVP after excipient spiked into degraded PS20 solution: 0.05% PS20 degraded with 37.5 μg/mL PPL, 35.5 mM HP-α-CD or HP-γ-CD, 0.5-15% HP-β-CD, 5° C. overnight, HIAC
# Protocol: Subvisible particles were measured using a HIAC 9703 particle counter equipped with an HRDL-150 detector and a 1 mL syringe. Performance of the instrument was verified with NIST-traceable 2 μm Polystyrene bead standards at 3000 counts/mL before each measurement session. The HIAC instrument was configured to a 10 mL/min flow rate, 0.1 mL tare volume, and 0.4 mL sample volume. The samples were analyzed using 4 runs of 0.4 mL sips, with the first run of each sample was discarded to prevent measurement error due to sample carryover. Results were reported as the average values for 1.4, 2, 5, 10, 15, and 25, 50 μm analysis filter sizes.
# Vials were inspected for visible particulates using a Seidenader V90-T visual inspection unit (Markt Schwaben, Germany) with vial carriage tilted to 60 degrees. Visible particle inspection of samples was performed by placing the glass vials in the holder and rotating in the presence of a Tyndall light directed through the bottom of the vial. Pre-rotation (i.e., fast rotation) was first performed to agitate the liquids, suspend, and circulate particles. Following rotation and illumination, the particles are in motion and the light causes reflections of the particles that make them visible (i.e., Tyndall effect). Visible particles were then observed using a magnifying lens. Videos and photographs of visible particles were obtained using a Samsung (seoul, South Korea) Galaxy device.
# Several excipients were tested for their ability to solubilize particles produced as a result of enzymatic PS20 degradation. Solutions of concentrated HP-α-CD, HP-β-CD, HP-γ-CD, SBE-β-CD, PVP, PEG 1500, sucrose, and methionine were prepared in triplicate in pH 5.5 buffer. Particles from enzymatic PS20 degradation were prepared. Three solutions of 0.05% PS20 in pH 5.5 buffer were enzymatically degraded with 37.5 μg/mL PPL for 4.5 hours at room temperature, followed by 30 minutes of heat inactivation at 85° C. The degraded PS20 solutions were placed at 5° C. to allow for crystallization of particles.
# After particle formation in the degraded PS20 solutions, the remaining sample preparation was conducted in a 5° C. cold room to prevent the PS20 derived particles from dissolving. Each degraded PS20 solution was divided into 11 aliquots and concentrated excipient was spiked into each the aliquots. The final concentration of excipient in each sample was as follows: 5% sucrose, 10 mg/mL methionine, 5% PVP, 5% PEG 1500, 15% HP-β-CD, 5% HP-β-CD, 0.5% HP-β-CD, 35.5 mM HP-α-CD, 35.5 mM HP-γ-CD, and 35.5 mM SBE-β-CD. After the addition of each excipient, samples were left at 5° C. overnight. The following day, vials were inspected for visible particles under a Seidenader visual inspection instrument. Subvisible particle counts were measured using a HIAC 9703 particle counter.
# [2] = molecular target: T1, Candida Antarctica Lipase B (CALB) (Moesziomyces antarcticus, UniProt P41365); experiment: Enzymatic degradation of PS20 by CALB, PS20 by RP-ELSD; type: biochemical; conditions: for PS20 degradation (in words): 15% (w/v) excipient
# T1 construct: purchased Sigma Aldrich Inc. (St. Louis, Mo.)
# T1 sequence (P41365 26-342): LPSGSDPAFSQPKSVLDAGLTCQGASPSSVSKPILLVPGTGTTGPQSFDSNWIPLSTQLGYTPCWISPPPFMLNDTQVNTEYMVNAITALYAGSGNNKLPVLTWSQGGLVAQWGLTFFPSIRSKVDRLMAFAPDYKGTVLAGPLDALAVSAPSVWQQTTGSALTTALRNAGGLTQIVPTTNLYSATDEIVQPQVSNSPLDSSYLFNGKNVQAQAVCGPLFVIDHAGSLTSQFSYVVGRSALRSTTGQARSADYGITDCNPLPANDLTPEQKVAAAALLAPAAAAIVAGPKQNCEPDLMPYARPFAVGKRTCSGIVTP
# Protocol: Polysorbate concentration was determined using reverse phase ultra-performance liquid chromatography using evaporative light scattering detection (RP-ELSD). Samples were analyzed using an Agilent 1100 series high performance liquid chromatography system (HPLC) fitted with a Waters Oasis MAX cartridge column (20×2.1 mm, 30 μm particle size). The HPLC system was set up with a switching valve directing column flow-through to either waste or a Varian 380-LC evaporative light scattering detector set to 100° C. The mobile phases consisted of 2% formic acid in water (Pump A) and 2% formic acid in isopropanol (Pump B). The pump gradient was isocratic at 10% pump B during equilibration, linear to 20% pump B for 1 minute, isocratic at 20% pump B for 2.4 minutes, linear to 100% pump B for 0.1 minutes, isocratic at 100% pump B for 1.1 minutes, linear to 10% pump B for 0.1 minutes, and finally isocratic at 10% pump B for 1.9 minutes. The switching valve directed column flow-through to waste at the beginning of every injection, and then directed flow to the detector after 2.4 minutes until the end of the gradient. In order to quantitate the PS20 concentration, a standard curve was generated by injecting 20 μL of solutions containing between 0% w/v and 0.4% w/v PS20. For excipients which affected the migration time of PS20 through the column, PS20 standard curve solutions containing the relevant excipient were included in the analysis to facilitate accurate quantitation.
# […] Samples of 0.02% PS20 in pH 5.5 buffer containing either no additional excipient, 15% Sucrose, […] the enzymes porcine pancreatic lipase (PPL), lipoprotein lipase (LPL), Candida Antarctica lipase (CALB) and rabbit liver esterase (RLE) at room temperature. PPL samples were digested with 15 μg/mL enzyme for 4.5 hours. LPL samples were digested with 70 μg/mL enzyme for 5 hours. CALB samples were digested with 0.1 mg/mL immobilized enzyme for 1 hour. RLE samples were digested with 15 μg/mL enzyme for 5 hours. All digestions were conducted at room temperature.
# PPL digestion was stopped by heat inactivation in an 85° C. water bath for 30 minutes. LPL and RLE digestion could not be stopped by heat inactivation, so the samples were analyzed immediately for PS20 content. CALB digestion was stopped by filtering out the immobilized enzyme beads. In order to permit particle formation, CALB samples were placed at 5° C. overnight. RLE and LPL samples were frozen at −20° C. overnight to impede enzymatic activity and were then thawed over ice immediately prior to particle analysis.
# As described above, all samples were analyzed for PS20 content by high performance liquid chromatography (Agilent 1100 series) with an inline evaporative light scattering detector (Varian 380-LC series). Visible particle inspection was conducted on a Seidenader visual inspection instrument. Subvisible particle analysis was conducted on a HIAC 9703 particle counter.
# [3] = 0.02 (w/v) PS20, CALB digestion (FIG. 9)
Compound,amount of SVP after excipient spiked into degraded PS20 solution [1],"PS20 degradation (in words) [2, 3]","visible particles after spiking excipient ([1]; 15% (w/v) HP-β-CD, PS20 particles from PPL digestion)","Polysorbate 20 (Relative %) ([2]; 15% w/v HP-β-CD, 0.02% PS20, pH 5.5, 0.1 mg/mL immobilized CALB, 1 hour, room temperature) [%]","PS20 degradation ([2]; 15% HP-γ-CD, 0.02 (w/v) PS20, CALB digestion (FIG. 9)) [%]"
2-hydroxypropyl-α-cyclodextrin [HP-α-CD],significantly reduce the amount of SVP,no significant PS20 degradation,–,–,–
2-hydroxypropyl-β-cyclodextrin [HP-β-CD],significantly reduce the amount of SVP,no significant PS20 degradation,immediate solubilization of visible particles; also recorded: no visible particles,85.7,–
2-hydroxypropyl-γ-cyclodextrin [HP-γ-CD],significantly reduce the amount of SVP,–,–,–,~82
"OC[C@H]1O[C@@](CO)(O[C@H]2O[C@H](CO)[C@@H](O)[C@H](O)[C@H]2O)[C@@H](O)[C@@H]1O [sucrose, reference compound]",–,significant decreases in PS20 concentration,–,–,–
